Experimental data: patent publication US20260234157A1, “COMPOUND AND METHOD FOR TARGETED DEGRADATION OF ANDROGEN RECEPTOR” (Gan & Lee Pharmaceuticals Co., Ltd., priority 2023, published 2026)
Positions count from the first letter of the chain named. Like-named read-outs stand apart in the source and are kept apart here.

Key:
Type in all cases: cell-based
AR protein [1] = molecular target: T1, AR protein (Homo sapiens, UniProt P10275, T878A); assay: Degradation of AR protein in LNCaP cells (Western blot); conditions: for inhibition at 0.01 µM: read-out: Degradation rates of the AR protein in LNCaP cells, 10 nM (%); for inhibition at 0.1 µM: read-out: Degradation rates of the AR protein in LNCaP cells, 100 nM (%)
T1 construct: degradation activity of the compounds disclosed in the present disclosure on AR protein in LNCaP cells; host or cells: LNCaP FGC
T1 sequence (P10275 1-920 T878A): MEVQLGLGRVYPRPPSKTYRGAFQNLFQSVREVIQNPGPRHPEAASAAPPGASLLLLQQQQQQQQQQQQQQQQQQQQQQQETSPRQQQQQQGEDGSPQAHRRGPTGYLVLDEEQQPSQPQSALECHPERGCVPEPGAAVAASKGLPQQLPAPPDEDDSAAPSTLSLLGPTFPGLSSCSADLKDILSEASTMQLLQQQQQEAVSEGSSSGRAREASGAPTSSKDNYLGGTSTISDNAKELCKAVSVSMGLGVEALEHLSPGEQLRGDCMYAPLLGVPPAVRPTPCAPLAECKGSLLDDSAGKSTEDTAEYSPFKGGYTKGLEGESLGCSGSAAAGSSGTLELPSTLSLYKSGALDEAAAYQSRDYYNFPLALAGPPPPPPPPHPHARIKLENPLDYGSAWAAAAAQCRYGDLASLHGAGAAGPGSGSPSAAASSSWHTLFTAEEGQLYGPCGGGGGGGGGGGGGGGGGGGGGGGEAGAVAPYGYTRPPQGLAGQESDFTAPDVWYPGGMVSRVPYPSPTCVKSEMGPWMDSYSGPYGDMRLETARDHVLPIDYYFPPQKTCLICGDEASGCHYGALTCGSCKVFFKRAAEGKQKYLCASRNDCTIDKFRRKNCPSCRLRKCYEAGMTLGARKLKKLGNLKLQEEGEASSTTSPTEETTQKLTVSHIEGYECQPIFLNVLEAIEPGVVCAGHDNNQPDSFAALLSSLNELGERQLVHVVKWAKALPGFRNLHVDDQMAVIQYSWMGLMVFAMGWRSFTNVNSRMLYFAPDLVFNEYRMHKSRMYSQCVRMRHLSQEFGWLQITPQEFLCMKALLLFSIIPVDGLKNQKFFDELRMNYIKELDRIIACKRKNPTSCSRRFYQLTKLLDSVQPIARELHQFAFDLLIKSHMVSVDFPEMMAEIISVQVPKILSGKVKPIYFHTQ
Procedure, shortened: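 Percent AR degradation was derived from GAPDH-normalised Western blot band intensities (infrared detection) in LNCaP lysates.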

AR protein [2] = molecular target: T2, AR protein (Homo sapiens, UniProt P10275); assay: Degradation of AR protein in VCaP cells (Western blot); conditions: 8 hours; for inhibition at 0.01 µM: compound at 10 nM, read-out: Degradation rate of the AR protein in VCaP cells, 10 nM (%); for inhibition at 0.1 µM: compound at 100 nM, read-out: Degradation rate of the AR protein in VCaP cells, 100 nM (%)
T2 construct: degradation activity of the compounds disclosed in the present disclosure on AR protein in VCaP cells; host or cells: VCaP
T2 sequence (P10275 1-920): T1 sequence (P10275 1-920 T878A) with A878T
Procedure, shortened: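 Western blot readout: AR band grayscale normalised to GAPDH, used to derive degradation rate. Lysates came from VCaP cells exposed to compound for 8 h, with solvent controls run in parallel.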

LNCaP FGC cells = assay: Inhibition of proliferation of LNCaP cells (WST-8); conditions: Homo sapiens, LNCaP, 96 h
Procedure: The cells were cultured in a cell culture incubator with 5% CO2 at 37° C. overnight. […] On the sixth day, 96 well plates were taken out, and 20 μL of WST-8 (Beytime, C0040) reagent was added to each well.

VCaP cells = assay: Inhibition of proliferation of VCaP cells (WST-8); conditions: Homo sapiens, read-out: IC50 for inhibiting the proliferation of VCaP cells
Procedure, shortened: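 Proliferation was read by WST-8 on day nine. Cells were VCaP FGC, seeded at 15000 cells per well in 10% FBS DMEM and kept at 37° C with 5% CO2.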

[3] = LNCaP cells, compound 10 nM, 8 hours, Western blot grayscale, GAPDH internal reference
[4] = LNCaP cells, compound 100 nM, 8 hours, Western blot grayscale, GAPDH internal reference
[5] = LNCaP FGC cells, 96 hours, WST-8 absorbance at 450 nm, read-out: IC50 for inhibiting the proliferation of LNCaP cells
[6] = VCaP cells, 168 hours, WST-8 absorbance at 450 nm

inhibition at 0.01 µM (AR protein [1]; [3]) [%]	inhibition at 0.1 µM (AR protein [1]; [4]) [%]	inhibition at 0.01 µM (AR protein [2]) [%]	inhibition at 0.1 µM (AR protein [2]) [%]	IC50 (LNCaP FGC cells; [5]) [nM]	IC50 (VCaP cells; [6]) [nM]	SMILES	inhibition at 0.01 µM (AR protein [1]; LNCaP, 8 h) [%]	inhibition at 0.1 µM (AR protein [1]; LNCaP, 8 h) [%]	IC50 (LNCaP FGC cells; read-out: IC50 for inhibiting the proliferation of LNCaP cells, LNCaP FGC cells, 96 hours, WST-8 absorbance at 450 nm) [nM]	IC50 (VCaP cells; VCaP, 168 h) [nM]	IC50 (LNCaP FGC cells; read-out: IC50 for inhibiting the proliferation of LNCaP cells) [nM]
57	70	39	51	1120	4200	N#Cc1ccc(O[C@H]2CC[C@H](NC(=O)c3ccc(N4CCC5(CCC(N6CCC7(CCc8cc9c(cc8O7)C(=O)N(C7CCC(=O)NC7=O)C9=O)CC6)CC5)C4)nn3)CC2)cc1Cl (stereo partly drawn) [Compound 34]	–	–	–	–	–
39	79	47	65	600	600	N#Cc1ccc(O[C@H]2CC[C@H](NC(=O)c3ccc(N4CC[C@H](CN5CCC6(CC5)COc5cc7c(cc5C6)C(=O)N(C5CCC(=O)NC5=O)C7=O)C4)nn3)CC2)cc1Cl (stereo partly drawn) [Compound 74]	–	–	–	–	–
18	22	17	19	3200	7070	N#Cc1ccc(O[C@H]2CC[C@H](NC(=O)c3ccc(N4CCC5(CC4)CC(F)(F)c4cc6c(cc4O5)C(=O)N(C4CCC(=O)NC4=O)C6=O)nn3)CC2)cc1Cl (stereo partly drawn) [Compound 36]	–	–	–	–	–
37	35	66	86	2590	3	N#Cc1ccc(O[C@H]2CC[C@H](NC(=O)c3ccc(N4CCC(CC(=O)N5CCC6(CC5)COc5c6ccc6c5CN(C5CCC(=O)NC5=O)C6=O)CC4)nn3)CC2)cc1Cl (stereo partly drawn) [Compound 192]	–	–	–	–	–
66	50	21	56	1250	3910	CC1(CN2CC3(CCc4cc5c(cc4O3)C(=O)N(C3CCC(=O)NC3=O)C5=O)C2)CCN(c2ccc(C(=O)N[C@H]3CC[C@H](Oc4ccc(C#N)c(Cl)c4)CC3)nn2)CC1 (stereo partly drawn) [Compound 2]	–	–	–	–	–
72	74	49	42	420	530	N#Cc1ccc(OC2CCC(NC(=O)c3ccc(N4CC5(CC(N6CCC7(CC6)COc6cc8c(cc6C7)C(=O)N(C6CCC(=O)NC6=O)C8=O)C5)C4)nn3)CC2)cc1Cl (stereo not drawn) [Compound 66]	–	–	–	–	–

Continued, compound first:

SMILES	inhibition at 0.01 µM (AR protein [1]; [3]) [%]	inhibition at 0.1 µM (AR protein [1]; [4]) [%]	inhibition at 0.01 µM (AR protein [2]) [%]	inhibition at 0.1 µM (AR protein [2]) [%]	IC50 (LNCaP FGC cells; [5]) [nM]	IC50 (VCaP cells; [6]) [nM]	inhibition at 0.01 µM (AR protein [1]; LNCaP, 8 h) [%]	inhibition at 0.1 µM (AR protein [1]; LNCaP, 8 h) [%]	IC50 (LNCaP FGC cells; read-out: IC50 for inhibiting the proliferation of LNCaP cells, LNCaP FGC cells, 96 hours, WST-8 absorbance at 450 nm) [nM]	IC50 (VCaP cells; VCaP, 168 h) [nM]	IC50 (LNCaP FGC cells; read-out: IC50 for inhibiting the proliferation of LNCaP cells) [nM]
COc1cc(OC2C(C)(C)C(NC(=O)c3ccc(N4CCC(CN5CCC6(CC5)COc5cc7c(cc56)C(=O)N(C5CCC(=O)NC5=O)C7=O)CC4)cc3)C2(C)C)ccc1C#N (stereo not drawn) [Compound 280]	36	52	15	77	9250	45	–	–	–	–	–
COc1cc(O[C@H]2C(C)(C)[C@H](NC(=O)c3ccc(N4CCC(C)(CN5CCC6(CCc7cc8c(cc7O6)C(=O)N(C6CCC(=O)NC6=O)C8=O)CC5)CC4)cc3)C2(C)C)ccc1C#N (stereo partly drawn) [Compound 287]	28	51	-31	13	70500	310	–	–	–	–	–
N#Cc1ccc(O[C@H]2CC[C@H](NC(=O)c3ccc(N4CC(N5CCC6(CCc7cc8c(cc7O6)C(=O)N(C6CCC(=O)NC6=O)C8=O)CC5)C4)nn3)CC2)cc1Cl (stereo partly drawn) [Compound 25]	–	–	13	32	–	–	49	43	390	910	–
COc1cc(O[C@H]2C(C)(C)[C@H](NC(=O)c3ccc(N4CCC(CN5CCC6(CCc7cc8c(cc7O6)CN(C6CCC(=O)NC6=O)C8=O)CC5)CC4)cc3)C2(C)C)ccc1C#N (stereo partly drawn) [Compound 296]	53	63	0	59	6600	1	–	–	–	–	–
N#Cc1ccc(O[C@H]2CC[C@H](NC(=O)c3ccc(N4CCC(CO)(CN5CCC6(CC5)COc5c6ccc6c5CN(C5CCC(=O)NC5=O)C6=O)CC4)nn3)CC2)cc1Cl (stereo partly drawn) [Compound 257]	36	-41	67	75	14	1.5	–	–	–	–	–
N#Cc1ccc(O[C@H]2CC[C@H](NC(=O)c3ccc(N4CCC(C#N)(CN5CCC6(CC5)COc5c6ccc6c5C(=O)N(C5CCC(=O)NC5=O)C6=O)CC4)nn3)CC2)cc1Cl (stereo partly drawn) [Compound 227]	45	62	24	60	170	30	–	–	–	–	–
N#Cc1ccc(O[C@H]2CC[C@H](NC(=O)c3ccc(N4CCC(CN5CCC6(CC5)COc5c6ccc6c5CN(C5CCC(=O)NC5=O)C6=O)(C5CC5)CC4)nn3)CC2)cc1Cl (stereo partly drawn) [Compound 238]	31	61	54	79	21	1.6	–	–	–	–	–
N#Cc1ccc(O[C@H]2CC[C@H](NC(=O)c3ccc(N4CCC5(CCC(N6CCC7(CC6)COc6cc8c(cc67)C(=O)N(C6CCC(=O)NC6=O)C8=O)CC5)CC4)nn3)CC2)cc1Cl (stereo partly drawn) [Compound 51]	13	49	83	90	400	18	–	–	–	–	–
N#Cc1ccc(O[C@H]2CC[C@H](NC(=O)c3ccc(N4CCC(CC5CC5)(CN5CCC6(CC5)COc5c6ccc6c5CN(C5CCC(=O)NC5=O)C6=O)CC4)nn3)CC2)cc1Cl (stereo partly drawn) [Compound 211]	45	28	-4	46	–	–	–	–	–	2.5	55
